Experimental data from ChEMBL document CHEMBL1857833, “Screening and optimization of specific chemical series against human African Trypanosomiasis (HAT)”.
≈ marks a conversion by molar mass, not a printed value. Where “and” joins values, the source holds several entries; their conditions need not be identical. Equal entries are not always repeated.

Columns and labels:
[1] = DNDI: Cytotoxicity against L929 mouse fibroblasts, CYTO-SP, 24 hour; assay type: toxicity, cell-based; conditions: mouse, L929 mouse fibroblasts
[2] = DNDI: Lipophilicity measured in Chromatographic hydrophobicity index (CHI) assay, pH 7.4; assay type: physicochemical; conditions: buffer
Trypanosoma brucei [3] = assay: DNDI: Inhibition of Human African Trypanosomiasis, Cross 22, in vitro; assay type: functional, organism-based
[4] = DNDI: Cytotoxicity against L929 mouse fibroblasts, 72 hour.; assay type: toxicity, cell-based; conditions: mouse, L929 mouse fibroblasts
[5] = DNDI: Solubility in phosphate buffered saline at pH7.4 measured by nephelometry at room temperature (NEPH-RT); assay type: physicochemical; conditions: pH 7.4
Trypanosoma brucei [6] = assay: DNDI: Inhibition of Human African Trypanosomiasis, SBRI 427, in vitro; assay type: functional, organism-based
Trypanosoma cruzi = assay: DNDI: Inhibition of Chagas Disease parasite Trypanosoma cruzi (Tulahuen LacZ, Clone C4), in vitro.; assay type: functional, organism-based
Plasmodium falciparum = assay: DNDI: Inhibition of the malaria parasite Plasmodium falciparum, in vitro; assay type: functional, organism-based; conditions: K1
[7] = DNDI: Cytotoxicity against L-6 rat myoblasts from skeletal muscle cells; assay type: toxicity, cell-based, L6; conditions: L-6 rat skeletal muscle myoblasts
[8] = tested on: Trypanosoma brucei rhodesiense; assay: DNDI: Inhibition of Human African Trypanosomiasis (HAT), STIB 900, in vitro; assay type: functional, organism-based
Leishmania donovani = assay: DNDI: Inhibition of formation of Leishmania donovani (strain MHOM/ET/67/L82) axenic amastigotes, in vitro.; assay type: functional, organism-based
[9] = mouse, microsomes, 1 µM
Description: DNDI: in vitro intrinsic clearance in mouse liver microsomes at a concentration of 1uM

in vitro = conditions: mouse, liver microsomes, t (1 / 2)
Description: DNDI: half life in mouse liver microsomes at a concentration of 1uM

Trypanosoma brucei [10] = assay: DNDI: Mean survival time in days (MSD) of mice after intraperitoneal injection of Human African Trypanosomiasis (HAT), EATRO 110, in vivo at 20 mg/kg/day for 4 days.; assay type: functional, Mus musculus
[11] = Trypanosoma brucei, SBRI 427, read-out: IC50

SMILES | IC50 at 24 h [1] | chromatographic logD [2] | IC50 (Trypanosoma brucei [3]) | IC50 at 72 h [4] | solubility kinetic [5] | IC50 (Trypanosoma brucei [6]) | IC50 (Trypanosoma brucei [6]; [11]) | IC50 (Trypanosoma cruzi) | IC50 (Plasmodium falciparum) | IC50 [7] | IC50 [8] | IC50 (Leishmania donovani) | CLint in vitro [9] | half-life at 1 µM (in vitro) | MSD (Trypanosoma brucei [10])
CC(C)(C)c1ccc(-c2nc(CNC3CCCCCC3)co2)cc1 | > 50 µg/mL | 5.41 | 0.44 µg/mL (≈ 1.35 µM) | < 3.13 µg/mL | 25 µM (≈ 8.16 µg/mL) | 0.3 µg/mL and 0.49 µg/mL | 0.39 µg/mL (≈ 1.19 µM) | – | – | – | – | – | – | – | –
CCCCCC(C)NCc1coc(-c2ccc(Br)cc2)n1 (centres undefined) | > 50 µg/mL | – | 2.01 µg/mL (≈ 5.72 µM) | 4.47 µg/mL (≈ 12.7 µM) | – | 1.34 µg/mL and 1.55 µg/mL | 0.9 µg/mL (≈ 2.56 µM) | 8.2 µg/mL (≈ 23.3 µM) | 2.41 µg/mL (≈ 6.86 µM) | 12.7 µg/mL (≈ 36.1 µM) | 0.532 µg/mL (≈ 1.51 µM) | 20.4 µg/mL (≈ 58 µM) | – | – | –
CCCCCC(C)NCc1coc(-c2ccc(Cl)c(Cl)c2)n1 (centres undefined) | 17 µg/mL (≈ 49.8 µM) | – | – | 4.75 µg/mL (≈ 13.9 µM) | – | – | 3.68 µg/mL (≈ 10.8 µM) | 22.2 µg/mL (≈ 65 µM) | 4.3 µg/mL (≈ 12.6 µM) | 13.3 µg/mL (≈ 39 µM) | 0.487 µg/mL (≈ 1.43 µM) | 16 µg/mL (≈ 46.9 µM) | – | – | –
Brc1ccc(-c2nc(CNC3CCCCCC3)co2)cc1 | > 50 µg/mL | – | 3.56 µg/mL (≈ 10.2 µM) | 15.7 µg/mL (≈ 44.9 µM) | – | 3.22 µg/mL and 1.69 µg/mL and 3.92 µg/mL | – | – | – | – | – | – | – | – | –
O/N=C1/CCCCCN1 | > 50 µg/mL | – | – | > 10 µg/mL | – | – | > 5 µg/mL | > 30 µg/mL | > 5 µg/mL | > 90 µg/mL | > 90 µg/mL | > 90 µg/mL | – | – | –
Clc1ccc(-c2nc(CNC3[C@H]4C[C@@H]5C[C@@H](C[C@H]3C5)C4)co2)cc1 (some centres undefined) | > 50 µg/mL | – | 2.29 µg/mL (≈ 6.68 µM) | 6.73 µg/mL (≈ 19.6 µM) | – | 2.01 µg/mL and 2.82 µg/mL | 1.8 µg/mL (≈ 5.25 µM) | – | – | – | – | – | – | – | –
CCOc1ccc(-c2nc(CNC3CCCCCC3)co2)cc1 | 25.1 µg/mL (≈ 80 µM) | – | 1.12 µg/mL (≈ 3.56 µM) | < 3.13 µg/mL | – | 1.36 µg/mL and 0.96 µg/mL | 1.46 µg/mL (≈ 4.64 µM) | – | – | – | – | – | 22 µL/min/mg | 39 min | –
Cc1ccc(CNC(CCc2ccccc2)c2nc(-c3ccccc3)c(N3CCCCC3)o2)cc1 (centres undefined) | – | – | – | > 10 µg/mL | – | – | > 5 µg/mL | – | – | – | – | – | – | – | 4 days
CCCCCC(C)NCc1coc(-c2ccc(OC3CCCC3)cc2)n1 (centres undefined) | – | > 5.2 | – | 1.38 µg/mL (≈ 3.87 µM) | 6 µM (≈ 2.14 µg/mL) | – | 0.73 µg/mL (≈ 2.05 µM) | – | – | – | – | – | 13 µL/min/mg | 67 min | 4 days
O/N=C(\Nc1cccc(F)c1)c1cccnc1Oc1c(F)cccc1F | – | – | – | > 10 µg/mL | – | – | > 5 µg/mL | – | – | – | – | – | – | – | 4 days
C[C@@H]1[C@H]2C[C@@H](C[C@H]1NCc1coc(-c3ccc(Br)cc3)n1)C2(C)C | > 50 µg/mL | – | 0.82 µg/mL (≈ 2.11 µM) | < 3.13 µg/mL | – | 0.42 µg/mL and 0.92 µg/mL and 0.85 µg/mL | – | – | – | – | – | – | – | – | –
C[C@@H]1[C@H]2C[C@@H](C[C@H]1NCc1coc(-c3ccc(C(C)(C)C)cc3)n1)C2(C)C | > 50 µg/mL | – | > 5 µg/mL | > 50 µg/mL | – | – | > 5 µg/mL | – | – | – | – | – | – | – | –
CCCCOc1ccc(-c2nc(CNC[C@@H]3CC[C@H]4C[C@@H]3C4(C)C)co2)cc1 | 16.4 µg/mL (≈ 42.9 µM) | – | 1.03 µg/mL (≈ 2.69 µM) | < 3.13 µg/mL | – | 1.54 µg/mL and 0.83 µg/mL and 0.57 µg/mL | – | – | – | – | – | – | 95 µL/min/mg | 9 min | –
Cc1ccc(CNC(CC(C)C)c2nc(Cc3ccccc3)c(N3CCOCC3)o2)cc1 (centres undefined) | – | – | – | > 10 µg/mL | – | – | 1.64 µg/mL (≈ 3.78 µM) | – | – | – | – | – | 155 µL/min/mg | 5 min | 4 days
Brc1ccc(-c2nc(CNC3[C@H]4C[C@@H]5C[C@@H](C[C@H]3C5)C4)co2)cc1 (some centres undefined) | > 50 µg/mL | – | 2.26 µg/mL (≈ 5.83 µM) | 8.08 µg/mL (≈ 20.9 µM) | – | 1.2 µg/mL and 3.02 µg/mL and 2.81 µg/mL | – | – | – | – | – | – | – | – | –
CCc1cccc(N/C(=N/O)c2ccccc2-c2ccccc2)c1 | 25.3 µg/mL (≈ 80 µM) | – | – | 2.4 µg/mL (≈ 7.59 µM) | – | – | 1.23 µg/mL (≈ 3.89 µM) | 5.38 µg/mL (≈ 17 µM) | 4.43 µg/mL (≈ 14 µM) | 9.67 µg/mL (≈ 30.6 µM) | 20.9 µg/mL (≈ 66.1 µM) | 4.96 µg/mL (≈ 15.7 µM) | – | – | –
CC(C)(C)c1ccc(-c2nc(CNC[C@@H]3CC[C@H]4C[C@@H]3C4(C)C)co2)cc1 | > 50 µg/mL | – | > 5 µg/mL | > 50 µg/mL | – | – | > 5 µg/mL | – | – | – | – | – | – | – | –
CCc1ccc(Oc2ncccc2/C(=N\O)NC2CCCCC2)cc1 | – | – | – | > 10 µg/mL | – | – | 0.09 µg/mL (≈ 0.265 µM) | – | – | – | – | – | – | – | 4 days
CC1CC(NCc2coc(-c3ccc(Br)cc3)n2)CC(C)(C)C1 (centres undefined) | > 50 µg/mL | – | 0.87 µg/mL (≈ 2.31 µM) | < 3.13 µg/mL | – | 0.54 µg/mL and 0.97 µg/mL and 1.17 µg/mL | – | – | – | – | – | – | – | – | –
